{
  "source": "paper PMC4457826",
  "about": "(PLoS Pathogens, 2015)",
  "key": {"FL-USP7": {"system": "FL-USP7", "experiment": "GST pull-down, USP7-FL", "type": "binding, human", "settings": "GST fusions 250 μg + USP7 250 μg, 50 mM Tris pH 8.0, 100 mM NaCl, 5 mM DTT, 5% glycerol, overnight 4°C; Coomassie stained gel; Fig 1A/1C; symbols not defined", "description": "The USP7 binding region is found within ICP0 residues 594–633 and mutagenesis studies have shown that K620 is essential for the interaction. In order to facilitate crystallization and structure determination, we set out to identify a shorter peptide that is capable of binding to USP7. To this end, a series of overlapping GST-ICP0 fusions (591–605, 595–609, 599–613, 603–617, 607–621, 611–625, 615–629, 619–633) were prepared (see Fig 1A for sequence details) and used in GST pull-down assays. […] Overall, our GST pull-down assays identified ICP0 residues between 619 and 629 as important mediators of USP7 binding in agreement with a previous study.\nNext we determined which region of USP7-CTD interacted with the ICP0 615–629 peptide. FL-USP7, USP7-CTD as well as Ubl12, Ubl123, Ubl345 and Ubl45 (Fig 1B) were used as prey in GST pull-down assays using GST-ICP0 615–629. FL-USP7 and USP7-CTD were used as positive controls while GST alone and USP7-NTD were used as negative controls.\n(§1) The ICP0, GMPS and UHRF1 WT and mutant peptides were cloned into pGEX-2TK and expressed in E. coli BL21(DE3). GST-ICP0 594–775 was obtained from Roger Everett. The GST-ICP0 or GST-GMPS or GST-UHRF1 or GST-ICP0 594–775 cell pellets from 500 ml of LB broth were re-suspended with PBS and lysed using sonication. The cleared lysates were applied to 500 μl of equilibrated glutathione-sepharose beads and incubated with rocking for 60 min at 4°C. Unbound proteins were removed by washing with PBS. Bound proteins were eluted with 50 mM Tris pH 8.0 and 100 mM NaCL containing 30 mM reduced glutathione. Equal amounts (250 μg) of the various USP7 proteins were incubated with 250 μg of the GST-ICP0 or GST-GMPS or GST-UHRF1 or GST-ICP0 594–775 peptides in 50 mM Tris pH 8.0, 100 mM NaCl, 5 mM DTT, 5% glycerol, 0.1 mM Benzamidine and 0.05 mM PMSF, applied to equilibrated glutathione-sepharose beads and incubated overnight with rocking at 4°C. After extensive washing, bound proteins were eluted with 50 mM Tris pH 8.0 and 100 mM NaCl containing 30 mM reduced glutathione."}, "USP7-CTD": {"molecular_target": "T1, USP7-CTD (Homo sapiens, UniProt Q93009)", "T1 construct": "USP7-CTD (535–1102); His tag (inferred from nickel-NTA purification; vector p15TV-L); made in house; host or cells: E. coli BL21(DE3)mgk", "T1 sequence (Q93009 535-1102)": "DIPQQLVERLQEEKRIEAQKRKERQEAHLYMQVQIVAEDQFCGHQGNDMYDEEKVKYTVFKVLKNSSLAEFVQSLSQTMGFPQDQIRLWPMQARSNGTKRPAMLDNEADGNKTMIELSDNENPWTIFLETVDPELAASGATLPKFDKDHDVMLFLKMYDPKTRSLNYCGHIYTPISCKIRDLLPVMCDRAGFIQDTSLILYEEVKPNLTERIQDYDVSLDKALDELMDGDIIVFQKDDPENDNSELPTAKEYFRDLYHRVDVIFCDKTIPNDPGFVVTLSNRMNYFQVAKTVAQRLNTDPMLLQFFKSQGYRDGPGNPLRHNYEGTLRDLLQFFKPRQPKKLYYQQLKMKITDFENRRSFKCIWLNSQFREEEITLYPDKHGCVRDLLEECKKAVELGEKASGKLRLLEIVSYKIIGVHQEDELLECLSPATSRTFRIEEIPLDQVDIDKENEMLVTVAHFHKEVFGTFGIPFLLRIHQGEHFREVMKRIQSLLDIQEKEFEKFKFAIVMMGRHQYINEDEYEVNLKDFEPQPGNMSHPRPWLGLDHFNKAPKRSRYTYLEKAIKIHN", "experiment": "GST pull-down, USP7-CTD", "type": "binding", "settings": "for Interaction with USP7-CTD (overlapping GST-ICP0 peptides): GST fusions 250 μg + USP7-CTD 250 μg, 50 mM Tris pH 8.0, 100 mM NaCl, 5 mM DTT, 5% glycerol, overnight 4°C, Coomassie stained gel, Fig 1A/1D, symbols not defined", "description": "(§2) Fragments representing USP7-CTD Ubl domains were prepared using ligation independent cloning with In-Fusion (Clontech) in p15TV-L. The boundaries of the Ubl domain constructs are Ubl12 (535–776), Ubl123 (535–889), Ubl345 (776–1102), Ubl45 (886–1102) and USP7-CTD (535–1102). Plasmids expressing USP7-NTD, USP7, and myc-USP7 WT (pCANmycUSP7) were described previously. USP7 mutants E759A, D762A, D764A and D762A/D764A in Ubl123 were synthesized (Genscript) and inserted into the pET15b plasmid. USP7 mutants E759A, D762A, D764A, D762A/D764A and D762R/D764R in USP7-CTD were prepared by ACGT Corporation. The D762R/D764R mutant was then sub-cloned into wild-type pCANmycUSP7 for co-IP assays. The mammalian ICP0 expression construct pCI-110 ICP0 was obtained from Roger Everett.\nas §1"}, "USP7-CTD mutant D762A": {"system": "USP7-CTD mutant D762A", "experiment": "GST pull-down, USP7-CTD D762A", "type": "binding, human", "description": "as §2, §1"}, "USP7-CTD mutant D764A": {"system": "USP7-CTD mutant D764A", "experiment": "GST pull-down, USP7-CTD D764A", "type": "binding, human", "description": "as §2\nThe ICP0, GMPS and UHRF1 WT and mutant peptides were cloned into pGEX-2TK and expressed in E. coli BL21(DE3). GST-ICP0 594–775 was obtained from Roger Everett. The GST-ICP0 or GST-GMPS or GST-UHRF1 or GST-ICP0 594–775 cell pellets from 500 ml of LB broth were re-suspended with PBS and lysed using sonication. The cleared lysates were applied to 500 μl of equilibrated glutathione-sepharose beads and incubated with rocking for 60 min at 4°C. Unbound proteins were removed by washing with PBS. Bound proteins were eluted with 50 mM Tris pH 8.0 and 100 mM NaCL containing 30 mM reduced glutathione. […]"}, "[1]": {"system": "USP7-CTD mutant D762A/D764A", "experiment": "GST pull-down, USP7-CTD D762A/D764A", "type": "binding, human", "description": "as §2, §1"}, "myc-tagged WT USP7": {"system": "myc-tagged WT USP7", "experiment": "Co-immunoprecipitation with myc-tagged WT USP7 from 293T cells", "type": "cell-based, human", "settings": "anti-myc IP, endogenous protein, Western blot, Fig 5B", "description": "(§3) 293T cells were grown in Dulbecco’s modified Eagle’s medium (DMEM) (Gibco) with 10% fetal calf serum. 293T cells at 70% confluence in a 10-cm-diameter dish were transfected with 10 μg pCANmycUSP7 expressing WT USP7 or D762R/D764R (MRGR) USP7 or with pcDNA3.1 (negative control), in each case using 20 μl PolyJet (SignaGen Laboratories) transfection reagent. Cells were transferred to a 15-cm-diameter dish 24 h post-transfection and harvested 48 h post-transfection. For experiments on USP7-ICP0 interactions, 293T cells were co-transfected with 1 μg pCANmycUSP7 expressing WT or D762R/D764R (MRGR) USP7 and either 1 μg pCI-110 ICP0 or 1 μg pcDNA3.1. For controls lacking USP7, 1 μg pCI-110 ICP0 was co-transfected with 1 μg pcDNA3.1. In each case 4 μl PolyJet (SignaGen Laboratories) transfection reagent was used.\nProtein samples were subjected to SDS-PAGE and transferred to nitrocellulose. […]\n293T cells transfected as described above were washed in phosphate-buffered saline (PBS) and lysed on ice for 45 min in a 4x volume of RIPA buffer (50 mM Tris-HCl [pH 8], 150 mM NaCl, 0.1% sodium deoxycholate, 0.5% NP-40) with complete protease inhibitors (Sigma P8340), followed by centrifugation. […] Immunoprecipitated proteins were separated by SDS-PAGE and analyzed by Western blotting, as described above."}, "[2]": {"system": "myc-tagged D762R/D764R (MRGR) USP7", "experiment": "Co-immunoprecipitation with myc-tagged D762R/D764R (MRGR) USP7 from 293T cells", "type": "cell-based, human", "settings": "anti-myc IP; for binding relative to recovery with WT USP7: D762R/D764R mutant, endogenous protein, multiple experiments, Fig 5B; for recovery with D762R/D764R USP7 (co-IP), in words: Western blot, Fig 5", "description": "as §3\nProtein samples were subjected to SDS-PAGE and transferred to nitrocellulose. Membranes were blocked in 5% skim milk in Tris-buffered saline with 1% Tween (TBS-T) and then incubated with antibodies against ICP0 (H1A027 from Virusys Corporation; 1:5000 dilution), myc (sc-40 from Santa Cruz Biotechnology; 1:5000 dilution), NP95/UHRF1 (A301-470A from Bethyl Laboratories; 1:1000 dilution), GMPS (rabbit serum raised against full-length GMPS [17]; 1:5000 dilution) and actin (MA5-15739 from Pierce; 1:20,000 dilution). After washing, blots were probed with goat anti-mouse or goat anti-rabbit peroxidase (Santa Cruz Biotechnology; 1:5000 dilution) and developed using chemiluminescence reagents (Santa Cruz biotechnology).\n293T cells transfected as described above were washed in phosphate-buffered saline (PBS) and lysed on ice for 45 min in a 4x volume of RIPA buffer (50 mM Tris-HCl [pH 8], 150 mM NaCl, 0.1% sodium deoxycholate, 0.5% NP-40) with complete protease inhibitors (Sigma P8340), followed by centrifugation. 1 mg of each clarified lysate was incubated with 1 μg of anti-myc antibody for 1h, followed by incubation with 30 μl of A/G PLUS agarose resin (Santa Cruz Biotechnology) for 2 h at 4°C with end-over-end rotation. The resin was harvested by centrifugation, washed in RIPA buffer, and then boiled in SDS loading buffer. Immunoprecipitated proteins were separated by SDS-PAGE and analyzed by Western blotting, as described above."}, "USP7 Ubl123": {"molecular_target": "T2, USP7 Ubl123 (Homo sapiens, UniProt Q93009)", "T2 construct": "Ubl123 (535–889); His tag (inferred from nickel-NTA purification; vector p15TV-L); made in house; host or cells: E. coli BL21(DE3)mgk", "T2 sequence (Q93009 535-889)": "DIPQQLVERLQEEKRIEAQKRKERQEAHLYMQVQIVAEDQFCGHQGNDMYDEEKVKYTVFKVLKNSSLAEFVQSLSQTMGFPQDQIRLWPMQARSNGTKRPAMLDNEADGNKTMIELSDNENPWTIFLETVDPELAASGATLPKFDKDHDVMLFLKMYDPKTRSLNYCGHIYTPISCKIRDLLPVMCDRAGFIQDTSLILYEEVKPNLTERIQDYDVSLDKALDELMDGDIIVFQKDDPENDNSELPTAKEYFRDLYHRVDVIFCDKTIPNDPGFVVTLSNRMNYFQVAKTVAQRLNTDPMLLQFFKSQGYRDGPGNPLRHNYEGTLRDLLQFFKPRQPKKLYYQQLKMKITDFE", "experiment": "GST pull-down, Ubl123", "type": "binding", "settings": "mutations within ICP0 615–629, Fig 3D", "description": "as §2, §1"}},
  "note": "No end group written: not given here.",
  "data": [
    {"substance": "AASGPRGPRKCARKT [ICP0 611–625, GST-ICP0 fusion of ICP0 residues 611–625]", "values": [
      {"measurement": "Interaction with USP7-FL (overlapping GST-ICP0 peptides)", "setting": "FL-USP7", "result": "interacted with FL-USP7 and USP7-CTD but not to the same extent"},
      {"measurement": "Interaction with USP7-CTD (overlapping GST-ICP0 peptides)", "setting": "USP7-CTD", "result": "interacted with FL-USP7 and USP7-CTD but not to the same extent"}
    ]},
    {"substance": "DRTPRKRISKTLN [GST-GMPS peptide, GST fusion of GMPS residues 316–328]", "values": [
      {"measurement": "Binding to WT USP7-CTD", "setting": "USP7-CTD; GST pull-down, GST-ICP0 594–775, GST-GMPS and GST-UHRF1 peptides and mutants, Fig 3H, 4C-F", "result": "interacted with USP7-CTD"},
      {"measurement": "Binding to USP7-CTD mutant D762A", "setting": "USP7-CTD mutant D762A", "result": "disrupted binding"},
      {"measurement": "Binding to USP7-CTD mutant D764A", "setting": "USP7-CTD mutant D764A", "result": "disrupted binding"},
      {"measurement": "Binding to USP7-CTD mutant D762A/D764A", "setting": "[1]", "result": "disrupted binding"}
    ]},
    {"substance": "GMPS: endogenous GMP synthase in 293T cells", "values": [
      {"measurement": "recovery with WT USP7 (co-IP)", "setting": "myc-tagged WT USP7", "result": "efficiently recovered"},
      {"measurement": "binding relative to recovery with WT USP7", "setting": "[2]", "result": "35% (± 16%)"},
      {"measurement": "recovery with D762R/D764R USP7 (co-IP), in words", "setting": "[2]", "result": "significantly decreased"}
    ]},
    {"substance": "K620A (PRGPRACARKTRHAE; also: GST fusion partner not in chain)", "values": [
      {"measurement": "Binding of mutant GST-ICP0 peptides to Ubl123", "setting": "USP7 Ubl123", "result": "lacked detectable binding"}
    ]},
    {"substance": "K620A/K624A (PRGPRACARATRHAE; also: GST fusion partner not in chain)", "values": [
      {"measurement": "Binding of mutant GST-ICP0 peptides to Ubl123", "setting": "USP7 Ubl123", "result": "lacked detectable binding"}
    ]},
    {"substance": "K624A (PRGPRKCARATRHAE; also: GST fusion partner not in chain)", "values": [
      {"measurement": "Binding of mutant GST-ICP0 peptides to Ubl123", "setting": "USP7 Ubl123", "result": "lacked detectable binding"}
    ]},
    {"substance": "R619A/K620A (PRGPAACARKTRHAE; also: GST fusion partner not in chain)", "values": [
      {"measurement": "Binding of mutant GST-ICP0 peptides to Ubl123", "setting": "USP7 Ubl123", "result": "lacked detectable binding"}
    ]},
    {"substance": "R623A/K624A (PRGPRKCAAATRHAE; also: GST fusion partner not in chain)", "values": [
      {"measurement": "Binding of mutant GST-ICP0 peptides to Ubl123", "setting": "USP7 Ubl123", "result": "lacked detectable binding"}
    ]},
    {"substance": "RKCARKTRHAETSGA [ICP0 619–633, GST-ICP0 fusion of ICP0 residues 619–633]", "values": [
      {"measurement": "Interaction with USP7-FL (overlapping GST-ICP0 peptides)", "setting": "FL-USP7", "result": "strongest interaction"},
      {"measurement": "Interaction with USP7-CTD (overlapping GST-ICP0 peptides)", "setting": "USP7-CTD", "result": "strongest interaction"}
    ]},
    {"substance": "RRKK", "values": [
      {"measurement": "Binding of mutant GST-ICP0 peptides to Ubl123", "setting": "USP7 Ubl123", "result": "lacked detectable binding"}
    ]},
    {"substance": "UHRF1: endogenous epigenetic regulator UHRF1 in 293T cells, an E3 ligase", "values": [
      {"measurement": "recovery with WT USP7 (co-IP)", "setting": "myc-tagged WT USP7", "result": "efficiently recovered"},
      {"measurement": "binding relative to recovery with WT USP7", "setting": "[2]", "result": "21% (± 6%)"},
      {"measurement": "recovery with D762R/D764R USP7 (co-IP), in words", "setting": "[2]", "result": "significantly decreased"}
    ]}
  ]
}
